Read-outs that look alike come from different tables or passages of the source.

The subject of experiment [1] is human pharyngeal cancer cell line FaDu. Nature of the experiment: Antitumor test (3), subcutaneous xenograft. Format: in vivo, mouse. Particulars: single administration. The protocol: (§1) Mouse: Five- to six-week-old female BALB/c nude mice (Charles River Laboratories Japan, Inc.) were subjected to experiment. Assay and calculation formula: In all of the studies, the major axis and minor axis of a tumor were measured twice a week by using an electronic digital caliper ([…] Corp.), and the tumor volume (mm^3) was calculated. The calculation formula is as shown below. [formula] Each of the anti-CLDN6 antibody-drug conjugate ADC1, the anti-HER2 antibody-drug conjugate ADC2, and the anti-TROP2 antibody-drug conjugate ADC3 was diluted with ABS buffer (10 mM acetate buffer (pH 5.5), 5% sorbitol), and a liquid volume of 10 mL/kg was intravenously administered into the tail vein. […] LLC)/Dulbecco's Phosphate-Buffered Saline, and then a liquid volume of 10 mL/kg was intraperitoneally administered. […] LLC)/Dulbecco's Phosphate-Buffered Saline, and then a liquid volume of 10 mL/kg was orally administered. Niraparib was dissolved in DMSO, diluted with 0.5% methylcellulose, and then a liquid volume of 10 mL/kg was orally administered. The described method is common to Examples 34 to 37. […]

Experiment [2] shares this test system. Kind of experiment: Cell growth inhibition test (3). The conditions noted are these: 144 h. Format: cell-based. The protocol: The human pharyngeal cancer cell line FaDu obtained from ATCC (American Type Culture Collection) was used for evaluation. Cells were prepared with MEM containing 10% fetal bovine serum (GE Healthcare), MEM Non-Essential Amino Acids Solution (Thermo Fisher Scientific), and Sodium Pyruvate (Thermo Fisher Scientific) (Thermo Fisher Scientific; hereinafter, referred to as EMEM medium) to reach 6.25×10^3 cells/mL, and 80 μL portions of them were added into a 96-well cell culture microplate. After addition of the cells, the cells were cultured at 37° C. and 5% CO2 overnight.
On the next day, 10 μL portions of pyrrolobenzodiazepine derivative A, B, or C diluted with EMEM medium to 100 pM, 50 pM, 25 pM, 12.5 pM, 6.25 pM, 3.13 pM, 1.56 pM, or 0.78 pM were added to the microplate. To each well without any pyrrolobenzodiazepine derivative, 10 μL of EMEM medium was added. Further, 10 μL portions of talazoparib prepared with EMEM medium to reach 2 nM were added to the microplate. To each well without talazoparib, 10 μL of EMEM medium was added. Thereafter, the microplate was cultured at 37° C. and 5% CO2 for 6 days. After culturing, the microplate was taken out of the incubator, and left to stand at room temperature for 30 minutes. CellTiter-Glo Luminescent Cell Viability Assay (Promega Corporation) in an amount equivalent to that of the culture solution was added, and stirred using a plate mixer. The microplate was left to stand at room temperature for 10 minutes, and thereafter the amount of emission was measured by using a plate reader (PerkinElmer).
Cell survival rates in wells with derivative A, B, or C were calculated by using the following formula.
[formula] • a: Mean value of amounts of emission from wells with derivative A, B, or C • b: Mean value of amounts of emission from wells with medium • IC50 values were calculated by using the following formula.
[formula] • a: Concentration of derivative A, B, or C, a • b: Concentration of derivative A, B, or C, b • c: Cell survival rate when derivative A, B, or C of concentration a was added • d: Cell survival rate when derivative A, B, or C of concentration b was added • a and b satisfy a>b at points sandwiching a cell survival rate of 50%.
Cell survival rates in wells with derivative A, B, or C added together with 2 nM talazoparib were calculated by using the following formula.
[formula] • a: Mean value of amounts of emission from wells with derivative A, B, or C added together with 2 nM talazoparib • b: Mean value of amounts of emission from wells with 2 nM talazoparib • IC50 values were calculated by using the following formula.
[formula] • a: Concentration of derivative A, B, or C, a • b: Concentration of derivative A, B, or C, b • c: Cell survival rate when derivative A, B, or C of concentration a and 2 nM talazoparib were added • d: Cell survival rate when derivative A, B, or C of concentration b and 2 nM talazoparib were added • a and b satisfy a>b at points sandwiching a cell survival rate of 50%.

Experiment [3] deals with human pancreatic cancer cell line CFPAC-1. Kind of experiment: Antitumor test (1), subcutaneous xenograft. The experiment is classed as in vivo, mouse. Particulars: single administration, talazoparib 0.8 mg/kg oral for 5 days from Day 0, Day 35, CFPAC-1. The protocol: as §1

Usually inhibition stands for the drop in the measured response relative to a control, in per cent. With `Cn1ncnc1[C@H]1c2n[nH]c(=O)c3cc(F)cc(c23)N[C@@H]1c1ccc(F)cc1` [talazoparib], the “tumor growth inhibition (TGI)” value in experiment [1] (talazoparib 0.8 mg/kg oral for 5 days from Day 0, Day 25, FaDu) worked out at 33%; in experiment [3], 17%. The inhibition at 0.002 µM in experiment [2] (2 nM talazoparib alone, 6 days) is less than 10%.
One may read the IC50 as the concentration that inhibits the measured activity by half. With `COc1ccc(C2=CN3C(=O)c4cc(OC)c(OCCCCCOc5cc6c(cc5OC)C(=O)N5CC7(CC7)C[C@H]5C=N6)cc4NC[C@@H]3C2)cc1` [derivative A, (11a′S)-7′-Methoxy-8′-[(5-{[(11aS)-7-methoxy-2-(4-methoxyphenyl)-5-oxo-5,10,11,11a-tetrahydro-1H-pyrrolo[2,1-c][1,4]benzodiazepin-8-yl]oxy}pentyl)oxy]-1′,11a′-dihydro-5′H-spiro[cyclopropane-1,2′-pyrrolo[2,1-c][1,4]benzodiazepine]-5′-one], the concentration for half-maximal inhibition (IC50) in experiment [2] (read-out: IC50, growth-suppressing effect, added singly, FaDu, 6 days (test 3)) is 7.7 pM; in experiment [2] (read-out: IC50, growth-suppressing effect, added together with 2 nM talazoparib, FaDu, 6 days), 4.7 pM.
As for `O=C(c1cc(Cc2n[nH]c(=O)c3ccccc23)ccc1F)N1CCN(C(=O)C2CC2)CC1` [olaparib, reference compound], in experiment [1] (olaparib 50 mg/kg i.p. for 5 days from Day 0, Day 25, FaDu), the “tumor growth inhibition (TGI)” value was found to be 7%.

Source of the values: US12648946B2, “Combination of antibody-pyrrolobenzodiazepine derivative conjugate and PARP inhibitor” (DAIICHI SANKYO COMPANY, LIMITED, priority 2019, dated 2026).
